Measurements taken from ChEMBL document CHEMBL5518214, “Discovery and Structure-Activity Relationships of Novel ssDAF-12 Receptor Modulators” (J Med Chem, 2024).
Values after ≈ are worked out from the molar mass of the structure shown.

Key:
[1] = target: T1, Nuclear hormone receptor isoform A (Strongyloides stercoralis, UniProt A0A0K0EQJ4); assay: Agonist activity at GST-tagged Strongyloides stercoralis DAF-12 LBD incubated for 0.5 hrs in presence of biotinylated SRC1 and SRC2 by Alphascreen assay
T1 sequence (A0A0K0EQJ4 whole entry): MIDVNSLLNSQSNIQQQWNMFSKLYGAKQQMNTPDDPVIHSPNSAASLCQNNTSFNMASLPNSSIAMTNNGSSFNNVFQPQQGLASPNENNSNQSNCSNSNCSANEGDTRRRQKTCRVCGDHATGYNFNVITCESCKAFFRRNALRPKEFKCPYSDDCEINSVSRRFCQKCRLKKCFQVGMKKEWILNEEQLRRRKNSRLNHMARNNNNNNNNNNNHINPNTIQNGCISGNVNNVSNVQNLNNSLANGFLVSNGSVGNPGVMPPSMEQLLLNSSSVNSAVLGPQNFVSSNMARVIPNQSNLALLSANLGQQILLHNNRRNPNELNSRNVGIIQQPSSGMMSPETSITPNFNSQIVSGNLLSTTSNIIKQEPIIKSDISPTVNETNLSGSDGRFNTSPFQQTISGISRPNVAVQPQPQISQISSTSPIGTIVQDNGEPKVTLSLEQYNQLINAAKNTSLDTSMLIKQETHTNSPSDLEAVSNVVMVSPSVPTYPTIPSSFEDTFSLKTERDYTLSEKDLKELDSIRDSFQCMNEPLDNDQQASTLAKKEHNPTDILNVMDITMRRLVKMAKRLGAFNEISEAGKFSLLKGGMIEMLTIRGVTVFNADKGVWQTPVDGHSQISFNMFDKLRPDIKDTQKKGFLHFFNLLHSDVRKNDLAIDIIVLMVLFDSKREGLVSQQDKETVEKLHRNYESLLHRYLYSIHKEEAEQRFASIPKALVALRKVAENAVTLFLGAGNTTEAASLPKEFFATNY

[2] = target: T1, Nuclear hormone receptor isoform A; assay: Antagonist activity at GST-tagged Strongyloides stercoralis DAF-12 LBD incubated for 0.5 hrs in presence of biotinylated SRC1 and SRC2 by Alphascreen assay
[3] = target: T2, Nuclear hormone receptor isoform A (Strongyloides stercoralis) (UniProt A0A0K0EQJ4); assay: Partial agonist activity at GST-tagged Strongyloides stercoralis DAF-12 LBD incubated for 0.5 hrs in presence of biotinylated SRC1 and SRC2 by Alphascreen assay relative to control
T2 sequence (whole entry): T1 sequence (A0A0K0EQJ4 whole entry)

[4] = target: T1, Nuclear hormone receptor isoform A; assay: Partial agonist activity at GST-tagged Strongyloides stercoralis DAF-12 LBD incubated for 0.5 hrs in presence of biotinylated SRC1 and SRC2 by Alphascreen assay
[5] = target: T2, Nuclear hormone receptor isoform A (Strongyloides stercoralis); assay: Agonist activity at GST-tagged Strongyloides stercoralis DAF-12 LBD incubated for 0.5 hrs in presence of biotinylated SRC1 and SRC2 by Alphascreen assay relative to control; settings: filed as agonist
HepG2 = assay: Cytotoxicity against human HepG2 cells assessed as reduction in cell viability incubated for 4 hrs by celltiter glo assay; type: toxicity, cell-based; settings: hepg2, 4 h
[6] = Kinetic solubility of compound at pH 7.4 by HPLC/MS analysis; type: physicochemical; settings: buffer, read-out: Kinetic_solubility
[7] = Metabolic stability in human liver microsome assessed as parent compound remaining measured for 30 mins by LC-MS analysis; type: ADME; settings: human liver microsomes, read-out: Stability
[8] = Drug metabolism in human liver microsome incubated for 90 mins in presence of NADPH by LC-MS/MS analysis; type: ADME; settings: microsomes, 1.5 h
[9] = target: T1, Nuclear hormone receptor isoform A; assay: Agonist activity at Strongyloides stercoralis DAF-12 LBD transfected in CHO cells; type: cell-based
[10] = Metabolic stability in human liver microsome assessed as half life measured for 30 mins by LC-MS analysis; type: ADME; settings: human liver microsomes
[11] = Drug metabolism in human liver microsome assessed as (2S,6R)-6-((5S,10S,13R,17R)-3-hydroxy-10,13-dimethyl-2,3,4,5,6,9,10,11,12,13,14,15,16,17-tetradecahydro-1H-cyclopenta[a]phenanthren-17-yl)-2-methylheptanoic acid formation by measuring retention time incubated for 90 mins in presence of NADPH by LC-MS/MS analysis; type: ADME; settings: microsomes, 1.5 h

| EC50 [1] [µM] | IC50 [2] [µM] | Emax [5] [%] | SMILES | other results |
| --- | --- | --- | --- | --- |
| > 100 | 16.8 | – | C[C@H](CCCC1=C(O)CCC1=O)[C@H]1CC[C@H]2C3=CC[C@H]4CC(=O)CC[C@]4(C)C3CC[C@]12C (stereo partly specified) | – |
| > 100 | 10 | – | C[C@H](CCc1nnn(C)n1)[C@H]1CC[C@H]2C3=CC[C@H]4CC(=O)CC[C@]4(C)C3CC[C@]12C (stereo partly specified) | – |
| 0.65 | – | 95 | C[C@H](CCC[C@H](C)C(=O)NS(=O)(=O)N(C)C)[C@H]1CC[C@H]2C3=CC[C@H]4CC(=O)CC[C@]4(C)C3CC[C@]12C (stereo partly specified) | – |

Further lines, the compound ahead of its results:

| SMILES | EC50 [1] [µM] | IC50 [2] [µM] | Emax [5] [%] | other results |
| --- | --- | --- | --- | --- |
| CNC(=O)[C@@H](C)CCC[C@@H](C)[C@H]1CC[C@H]2C3=CC[C@H]4CC(=O)CC[C@]4(C)C3CC[C@]12C (stereo partly specified) | – | – | – | Emax [3]: 11%; EC50 [4]: 1.02 µM |
| C[C@@H](CCC[C@@H](C)[C@H]1CC[C@H]2C3=CC[C@H]4CC(=O)CC[C@]4(C)C3CC[C@]12C)COS(=O)(=O)O (stereo partly specified) | – | – | – | Emax [3]: 15%; EC50 [4]: 7.2 µM |
| Cc1ccc(S(=O)(=O)NC(=O)[C@@H](C)CCC[C@@H](C)[C@H]2CC[C@H]3C4=CC[C@H]5CC(=O)CC[C@]5(C)C4CC[C@]23C)cc1 (stereo partly specified) | 4.7 | – | 40 | – |
| C[C@H](CCC[C@H](C)C(=O)O)[C@H]1CC[C@H]2C3=CC[C@H]4CC(=O)CC[C@]4(C)C3CC[C@]12C (stereo partly specified) | 0.08 | – | 100 | Activity (HepG2): Non-Toxic; solubility kinetic [6]: 4 µM (≈ 1.66 µg/mL); remaining at 0.5 h [7]: 50%; Drug metabolism [8]: Metabolite_Detected; EC50 [9]: 0.09 µM; half-life [10]: 17 min; Retention_time [11]: 8.51 min |
| C[C@H](CCc1nnn(C(c2ccccc2)(c2ccccc2)c2ccccc2)n1)[C@H]1CC[C@H]2C3=CC[C@H]4CC(=O)CC[C@]4(C)C3CC[C@]12C (stereo partly specified) | > 100 | 60 | – | – |
| C[C@H](CO)CCC[C@@H](C)[C@H]1CC[C@H]2C3=CC[C@H]4CC(=O)CC[C@]4(C)C3CC[C@]12C (stereo partly specified) | – | – | – | Emax [3]: 36%; EC50 [4]: 1.02 µM |
| C[C@H](CCc1nnn(C(C)(C)C)n1)[C@H]1CC[C@H]2C3=CC[C@H]4CC(=O)CC[C@]4(C)C3CC[C@]12C (stereo partly specified) | > 100 | 7.8 | – | – |
| C[C@H](CCC[C@H](C)C(=O)NS(C)(=O)=O)[C@H]1CC[C@H]2C3=CC[C@H]4CC(=O)CC[C@]4(C)C3CC[C@]12C (stereo partly specified) | 0.41 | – | 85 | solubility kinetic [6]: > 250 µM; EC50 [9]: 0.47 µM; Retention_time [11]: 7.28 min |
| C[C@H](CCCc1nnn(C)n1)[C@H]1CC[C@H]2C3=CC[C@H]4CC(=O)CC[C@]4(C)C3CC[C@]12C (stereo partly specified) | > 100 | 17.9 | – | – |
| C[C@H](CCc1nn[nH]n1)[C@H]1CC[C@H]2C3=CC[C@H]4CC(=O)CC[C@]4(C)C3CC[C@]12C (stereo partly specified) | > 100 | 6.9 | – | – |
